Test results as given in patent US11141397B2, “Composition for improving efficacy of L-DOPA treatment” (priority 2017, dated 2021).
Entries after “also recorded” stand apart in the source; their conditions may differ.

System: intrastriatal rotenone mouse model for PD
Experiment: Rotarod test (motor function) in the intrastriatal rotenone model
Assay type: in vivo, C57BL/6J mice
Method: Forty-eight seven week-old C57BL/6J mice (Charles River, The Netherlands) were housed at room temperature under a 12 h light/dark cycle. Food and water were provided ad libitum. […] Mice underwent stereotaxic surgery under isoflurane anesthesia: a hole was drilled in the skull and a cannula inserted in the right striatum at the following stereotaxic coordinates: AP +0.4, ML -2.0 from bregma, and DV -3.3 below dura. Rotenone-treated animals were injected with 5.4 μg of freshly prepared rotenone solution (dissolved in 2 μl DMSO). Sham-treated animals were injected with the vehicle (2 μl DMSO). 93 days after surgery the mice were euthanized by decapitation. The motor performance of each mouse was assessed in the Rotarod test as described in Inden et al. “Neurodegeneration of mouse nigrostriatal dopaminergic system induced by repeated oral administration of rotenone is prevented by 4-phenylbutyrate, a chemical chaperone” J. […] Briefly, mice were placed on an accelerating rod with speeds starting with 2 rpm and gradually increasing to 20 rpm. Time to first fall was recorded for a maximum of 300 s. […] Animals were divided into four groups of 12 animals (Sham+CD, Sham+AD, Rotenone+CD, and Rotenone+AD). […] The AD also contained supplementary amounts of choline, phospholipids, selenium, folic acid, and vitamins B6, B12, C, D, and E, above standard levels in the control diet. […] The rotarod test was started 1.5h after benserazide administration and performed as described below. […] ANOVAs were followed by a Tukey's multiple comparison test when appropriate. For the rotarod test performance over time, data were analyzed with a general linear model repeated measure ANOVA with the within subject factor time and the between subject factors surgery and diet. […] Analyses were performed using SPSS 22.0.

N[C@@H](Cc1ccc(O)c(O)c1)C(=O)O [levodopa, L-3,4-di-hydroxy-phenylalanine]
rotarod performance (time on rotarod) (days 26 and 27 after surgery, 60 minutes after 20 mg/kg oral levodopa vs vehicle, before dietary intervention, F(1,92)=24.77, p<0.0001): overall effect of levodopa on the animals' motor performances | effect on rotenone-induced motor dysfunction (rotarod) (overall effect, day 65-93, FIG. 1, three-way ANOVA): there was an effect; also recorded: alleviated rotenone-induced motor dysfunction | ability to remain on the rod (rotenone-injected mice on AD, levodopa 10 or 20 mg/kg vs saline or 5 mg/kg, day 65-93, p<0.001): better ability to remain on the rod | rotarod performance (rotenone-treated animals on CD, levodopa 20 mg/kg vs 5 mg/kg or saline, day 65-93, p<0.01): performed significantly better
